Measured values published in patent publication US20130023504A1, “Modulation of Prostaglandin/Cyclooxygenase Metabolic Pathways” (HUNTER-FLEMING LIMITED, priority 2006, published 2013).
Marks after values point to notes of the source that are not given here.

Columns and labels:
Assay type in all cases: cell-based
[1] = system: human PBMC; assay: PG levels (PGE2, PGD2, 15d-PGJ2) in culture medium of human PBMC cultured with and without TNF-α, EIA (Example 3)
Experimental: (§1) Whole blood was collected from donors in EDTA-supplemented pouches at the Etablissement Français du Sang (Brest, France). The PBMC were isolated then from whole blood under sterile conditions within 36 hours after collection. Gradient density centrifugation was carried out on Ficoll (Eurobio). After washing in RPMI 1640 medium (Eurobio), cells were suspended in RPMI 1640 medium supplemented with 10% heat-inactivated fetal calf serum (Eurobio), 2 mM glutamine (D. Dutscher), 100 U of penicillin/ml (D. Dutscher), and 100 μg of streptomycin/ml (D. Dutscher). Monocytes were selected by plastic adherence for 1 h and approximately 10^7 cells were plated in 6-well tissue culture plates (3 mL medium per well). All incubations were performed in a humidified incubator at 37° C. and 5% CO2. Cells were recovered and dispersed in 2 ml fresh incubation medium supplemented with either 7β-hydroxyEPIA, 7β-hydroxy-DHEA, or 7α-hydroxy-DHEA (in 20 μL ethanol) in the presence or absence of 0.01 μg/mL TNF-α (Sigma-Aldrich). Control incubations contained 20 μl ethanol but no steroid. Supernatants were collected after 4 h and 24 hours incubations for measurement of their PG contents and cells were used for subsequent RNA isolation. A single step extraction method using the Trizol Reagent (Invitrogen, Cergy-Pontoise, France) provided total RNA.
Commercially available EIA kits were used for the determination of PGE2 levels (Oxford Biomedical Research, UK) and 15d-PGJ2 levels (Assay designs, Euromedex, France) in culture media. Measurement of PGD2 levels was obtained using the prostaglandin D2-MOX EIA kit (Cayman Chemical, Euromedex). In this case, and prior to assay, the fresh samples were immediately treated with the MOX-HCl reagent, which converted PGD2 into PGD2-MOX, thus preventing any further chemical degradation.
(§2) All assays were carried out in triplicate and results were plotted as mean±S.E.M. One-way analysis of variance was performed followed by Duncan's multiple range tests in order to compare the differences between groups. Differences were considered statistically significant when p<0.05.

[2] = system: COX-2 mRNA; assay: COX-2 mRNA in human PBMC with and without TNF-α, quantitative RT-PCR
Experimental: as §1
(§3) cDNAs were synthesized from TURBO DNase I—treated RNA (Ambion, Huntingdon, UK) using the Superscript first strand synthesis system kit (Invitrogen). RT-PCR amplification mixtures (50 μL) contained 2.5× RealMaster Mix/20×SYBR solution (11.25 μL) (Eppendorf, Le Pecq, France) and 200 nM forward and reverse primers. Reactions were run on a RealPlex ep gradient S mastercycler (Eppendorf). The cycling conditions were 10 minutes at 95° C. and 45 cycles at 95° C., 55° C. and 68° C. for 15 seconds, 30 seconds and 30 seconds, respectively. Each assay included a standard curve of four serial dilution points of control cDNA. The HPRT1 housekeeping gene was used for quantification. All oligonucleotide primers (Table 2) were synthesized by Genecust/Distribio (Evry, France). The specificity of the amplified product was monitored by examining the melting curve of the product and confirmed by analysis on agarose gel electrophoresis.
as §2

[3] = system: m-PGES1 mRNA; assay: m-PGES1 mRNA in human PBMC with and without TNF-α, quantitative RT-PCR
Experimental: as §1, §3, §2

[4] = 100 nM + TNF-α (10 ng/mL), 24 h

## CC12CCC3C(C1CCC2=O)[C@H](O)C=C1C[C@@H](O)CCC13C (stereo partly drawn) [7α-hydroxy-DHEA, 7α-hydroxy-dehydroEPIAndrosterone]
[1]; 1 nM + TNF-α (10 ng/mL), 4 h
  15d-PGJ2: 0.37 ± 0.020 ng/mL
  PGD2: 0.20 ± 0.003 ng/mL
  PGE2: 0.43 ± 0.003 ng/mL
[1]; 1 nM + TNF-α (10 ng/mL), 24 h
  15d-PGJ2: 0.63 ± 0.007^d ng/mL
  PGE2: 1.53 ± 0.048^c ng/mL
[1]; 1 nM, 4 h, without TNF-α
  15d-PGJ2: 0.46 ± 0.004 ng/mL
  PGD2: 0.17 ± 0.004 ng/mL
  PGE2: 0.22 ± 0.006 ng/mL
[1]; 1 nM, 24 h, without TNF-α
  15d-PGJ2: 0.51 ± 0.013^a ng/mL
  PGD2: 0.13 ± 0.001 ng/mL
  PGE2: 0.23 ± 0.003 ng/mL
[1]; 10 nM + TNF-α (10 ng/mL), 4 h
  15d-PGJ2: 0.40 ± 0.004 ng/mL
  PGD2: 0.17 ± 0.006 ng/mL
  PGE2: 0.45 ± 0.012 ng/mL
[1]; 10 nM + TNF-α (10 ng/mL), 24 h
  15d-PGJ2: 0.71 ± 0.012^d ng/mL
  PGE2: 1.75 ± 0.052^c ng/mL
[1]; 10 nM, 4 h, without TNF-α
  15d-PGJ2: 0.42 ± 0.010 ng/mL
  PGD2: 0.18 ± 0.002 ng/mL
  PGE2: 0.22 ± 0.006 ng/mL
[1]; 10 nM, 24 h, without TNF-α
  15d-PGJ2: 0.59 ± 0.003^a ng/mL
  PGD2: 0.17 ± 0.003 ng/mL
  PGE2: 0.30 ± 0.006 ng/mL
[1]; 100 nM + TNF-α (10 ng/mL), 4 h
  15d-PGJ2: 0.41 ± 0.021 ng/mL
  PGD2: 0.18 ± 0.001 ng/mL
  PGE2: 0.39 ± 0.009 ng/mL
[1]; [4]
  15d-PGJ2: 0.51 ± 0.012^d ng/mL
  PGE2: 1.40 ± 0.037^c ng/mL
[1]; 100 nM, 4 h, without TNF-α
  15d-PGJ2: 0.41 ± 0.004 ng/mL
  PGD2: 0.17 ± 0.003 ng/mL
  PGE2: 0.22 ± 0.005 ng/mL
[1]; 100 nM, 24 h, without TNF-α
  15d-PGJ2: 0.58 ± 0.024^a ng/mL
  PGD2: 0.13 ± 0.002 ng/mL
  PGE2: 0.25 ± 0.012 ng/mL
[2]; 1 nM + TNF-α (10 ng/mL), 4 h
  COX-2 (mRNA), mRNA production relative to controls: 4.72 ± 1.229^a
[2]; 1 nM, 4 h, without TNF-α
  COX-2 (mRNA), mRNA production relative to controls: 0.56 ± 0.072^b
[2]; 1 nM, 24 h, without TNF-α
  COX-2 (mRNA), mRNA production relative to controls: 0.82 ± 0.27^b
[2]; 10 nM + TNF-α (10 ng/mL), 4 h
  COX-2 (mRNA), mRNA production relative to controls: 3.70 ± 1.246^a
[2]; 10 nM, 4 h, without TNF-α
  COX-2 (mRNA), mRNA production relative to controls: 0.94 ± 0.048
[2]; 10 nM, 24 h, without TNF-α
  COX-2 (mRNA), mRNA production relative to controls: 1.66 ± 0.408^a
[2]; 100 nM, 4 h, without TNF-α
  COX-2 (mRNA), mRNA production relative to controls: 1.10 ± 0.108
[2]; 100 nM, 24 h, without TNF-α
  COX-2 (mRNA), mRNA production relative to controls: 1.05 ± 0.214
[3]; 1 nM + TNF-α (10 ng/mL), 24 h
  mPGES1 (mRNA), mRNA production relative to controls: 21.5 ± 6.66^a
[3]; 1 nM, 4 h, without TNF-α
  mPGES1 (mRNA), mRNA production relative to controls: 0.76 ± 0.053
[3]; 1 nM, 24 h, without TNF-α
  mPGES1 (mRNA), mRNA production relative to controls: 1.77 ± 0.324^a
[3]; 10 nM + TNF-α (10 ng/mL), 24 h
  mPGES1 (mRNA), mRNA production relative to controls: 24.9 ± 10.30^a
[3]; 10 nM, 4 h, without TNF-α
  mPGES1 (mRNA), mRNA production relative to controls: 0.94 ± 0.067
[3]; 10 nM, 24 h, without TNF-α
  mPGES1 (mRNA), mRNA production relative to controls: 3.61 ± 0.662^a
[3]; [4]
  mPGES1 (mRNA), mRNA production relative to controls: 25.4 ± 6.96^a
[3]; 100 nM, 4 h, without TNF-α
  mPGES1 (mRNA), mRNA production relative to controls: 0.71 ± 0.058
[3]; 100 nM, 24 h, without TNF-α
  mPGES1 (mRNA), mRNA production relative to controls: 2.63 ± 0.475^a
